Key:
A498 = experiment: NCI one-dose SRB growth inhibition; type: cell-based; conditions: Homo sapiens, Renal Cancer, 48 h, read-out: GI% A498
Method: (§1) The antitumor assay was performed according to the protocol of the Drug Evaluation Branch, NCI, Bethesda[24–26]. A 48 h drug exposure protocol was adopted, and sulforhodamine B (SRB) assay[27] was utilized to assess the cell growth and viability, as reported earlier[17]^,[28].
(§2) The structures of all the newly synthesized pyridines 5a–l were submitted to the National Cancer Institute (NCI) Developmental Therapeutic Program (www.dtp.nci.nih.gov). […] Nine different types of cancer were tested in this assay: colon, ovarian, prostate, leukemia, melanoma, CNS, renal, breast and lung cancers. A 48 h drug exposure protocol was adopted, and sulforhodamine B (SRB) assay[27] was utilized to assess the cell growth and viability.

HCT-116 = experiment: NCI one-dose SRB growth inhibition; type: cell-based; conditions: Homo sapiens, HCT-116, 48 h, Colon Cancer, read-out: GI% HCT-116
Method: as §1, §2

HL-60(TB) = experiment: NCI one-dose SRB growth inhibition; type: cell-based; conditions: Homo sapiens, Leukemia, 48 h, read-out: GI% HL-60(TB)
Method: as §1, §2

HOP-92 = experiment: NCI one-dose SRB growth inhibition; type: cell-based; conditions: Homo sapiens, Non-Small Cell Lung Cancer, 48 h, read-out: GI% HOP-92
Method: as §1, §2

HS 578T = experiment: NCI one-dose SRB growth inhibition; type: cell-based; conditions: Homo sapiens, Breast Cancer, 48 h, read-out: GI% HS 578T
Method: as §1, §2

K-562 = experiment: NCI one-dose SRB growth inhibition; type: cell-based; conditions: Homo sapiens, K562, 48 h, Leukemia, read-out: GI% K-562
Method: as §1, §2

KM12 = experiment: NCI one-dose SRB growth inhibition; type: cell-based; conditions: Homo sapiens, Colon Cancer, 48 h, read-out: GI% KM12
Method: as §1, §2

M14 = experiment: NCI one-dose SRB growth inhibition; type: cell-based; conditions: Homo sapiens, M14, 48 h, Melanoma, read-out: GI% M14
Method: as §1, §2

MDA-MB-468 = experiment: NCI one-dose SRB growth inhibition; type: cell-based; conditions: Homo sapiens, Breast Cancer, 48 h, read-out: GI% MDA-MB-468
Method: as §1, §2

MOLT-4 = experiment: NCI one-dose SRB growth inhibition; type: cell-based; conditions: Homo sapiens, Leukemia, 48 h, read-out: GI% MOLT-4
Method: as §1, §2

NCI-H226 = experiment: NCI one-dose SRB growth inhibition; type: cell-based; conditions: Homo sapiens, Non-Small Cell Lung Cancer, 48 h, read-out: GI% NCI-H226
Method: as §1, §2

NCI-H23 = experiment: NCI one-dose SRB growth inhibition; type: cell-based; conditions: Homo sapiens, Non-Small Cell Lung Cancer, 48 h, read-out: GI% NCI-H23
Method: as §1, §2

NCI-H460 = experiment: NCI one-dose SRB growth inhibition; type: cell-based; conditions: Homo sapiens, Non-Small Cell Lung Cancer, 48 h, read-out: GI% NCI-H460
Method: as §1, §2

NCI-H522 = experiment: NCI one-dose SRB growth inhibition; type: cell-based; conditions: Homo sapiens, NCI-H522, 48 h, Non-Small Cell Lung Cancer, read-out: GI% NCI-H522
Method: as §1, §2

NCI/ADR-RES = experiment: NCI one-dose SRB growth inhibition; type: cell-based; conditions: Homo sapiens, Ovarian Cancer, 48 h, read-out: GI% NCI/ADR-RES
Method: as §1, §2

SF-539 = experiment: NCI one-dose SRB growth inhibition; type: cell-based; conditions: Homo sapiens, CNS Cancer, 48 h, read-out: GI% SF-539
Method: as §1, §2

SK-MEL-28 = experiment: NCI one-dose SRB growth inhibition; type: cell-based; conditions: Homo sapiens, Melanoma, 48 h, read-out: GI% SK-MEL-28
Method: as §1, §2

SK-MEL-2 = experiment: NCI one-dose SRB growth inhibition; type: cell-based; conditions: Homo sapiens, Melanoma, 48 h, read-out: GI% SK-MEL-2
Method: as §1, §2

SK-MEL-5 = experiment: NCI one-dose SRB growth inhibition; type: cell-based; conditions: Homo sapiens, Melanoma, 48 h, read-out: GI% SK-MEL-5
Method: as §1, §2

SNB-19 = experiment: NCI one-dose SRB growth inhibition; type: cell-based; conditions: Homo sapiens, CNS Cancer, 48 h, read-out: GI% SNB-19
Method: as §1, §2

SW-620 = experiment: NCI one-dose SRB growth inhibition; type: cell-based; conditions: Homo sapiens, Colon Cancer, 48 h, read-out: GI% SW-620
Method: as §1, §2

UACC-257 = experiment: NCI one-dose SRB growth inhibition; type: cell-based; conditions: Homo sapiens, UACC-257, read-out: GI% UACC-257, Melanoma, 48 h
Method: as §1, §2

[1] = system: 60 cancer cell lines (NCI, USA); experiment: NCI one-dose SRB assay, whole panel; type: cell-based, human; conditions: 10 μM; cell lines with GI% higher than 10%
Method: as §1, §2

A549 cell line = experiment: MTT anti-proliferative assay; type: cell-based; conditions: Homo sapiens, 48 h of incubation, mean ± SD of three experiments
Method: (§3) A549 (non-small cell lung cancer cell line) and HCT-116 (human colon cancer cell line), were obtained from American Type Culture Collection (Manassas, VA, USA). The cells were maintained in Dulbecco’s Modified Eagle’s Medium (DMEM) (Sigma-Aldrich, St. Louis, MO), and supplemented with 10% heat-inactivated FBS (Hyclone), 10 μg/mL of insulin (Manufacturer, Sigma, St. Louis, MO, USA), and 1% penicillin-streptomycin. MTT assay[29] was adopted to assess the in vitro antitumor activity of the newly synthesized pyridines 5a–l according to the reported procedures, using Doxorubicin as a standard treatment. Experimental conditions were tested using three replicates (three wells of the 96-well plate per experimental condition) and all experiments were carried out in triplicates. IC50 values were calculated by the use of the equation for Boltzman sigmoidal concentration–response curve using the nonlinear regression fitting models by Graph Pad, Prism version 5 (GraphPad Software Inc., La Jolla, CA).
(§4) All newly synthesized pyridines 5a–l were examined for their anti-proliferative activity towards two cancer cell lines: non-small cell lung cancer A549 cell line and colon cancer HCT-116 cell line. The MTT colorimetric assay was adopted to assess the anti-proliferative activity as described by Mosmann[29]. Doxorubicin was used as a control in this assay.

HCT-116 cell line = experiment: MTT anti-proliferative assay; type: cell-based; conditions: Homo sapiens, 48 h of incubation, mean ± SD of three experiments
Method: as §3, §4

WI-38 cell line = experiment: MTT cytotoxicity towards non-tumorigenic cells; type: cell-based, human; conditions: for IC50: WI-38, MTT, non-tumorigenic human lung fibroblast, mean ± SD of three experiments; for S. I. WI-38/A549: selectivity index, IC50 WI-38 / IC50 A549
Method: The cytotoxic activity of all synthesized pyridines 5a–l were assessed against non-tumorigenic human lung fibroblast WI-38 cell line to investigate their safety, using the MTT colorimetric assay.

SMILES | inhibition at 10 µM (A498) | inhibition at 10 µM (HCT-116) | inhibition at 10 µM (HL-60(TB)) | inhibition at 10 µM (HOP-92) | inhibition at 10 µM (HS 578T) | inhibition at 10 µM (K-562) | inhibition at 10 µM (KM12) | inhibition at 10 µM (M14) | inhibition at 10 µM (MDA-MB-468) | inhibition at 10 µM (MOLT-4) | inhibition at 10 µM (NCI-H226) | inhibition at 10 µM (NCI-H23) | inhibition at 10 µM (NCI-H460) | inhibition at 10 µM (NCI-H522) | inhibition at 10 µM (NCI/ADR-RES) | inhibition at 10 µM (SF-539) | inhibition at 10 µM (SK-MEL-28) | inhibition at 10 µM (SK-MEL-2) | inhibition at 10 µM (SK-MEL-5) | inhibition at 10 µM (SNB-19) | also measured
Cc1nc(-c2ccc(F)cc2)ccc1NC(=O)Nc1ccc2c(c1)OCO2 [Compound 5d, 1-(Benzo[d][1, 3]dioxol-5-yl)-3-(6-(4-fluorophenyl)-2-methylpyridin-3-yl)urea] | < 10% | 17% | < 10% | < 10% | < 10% | 23% | 11% | 37% | < 10% | < 10% | < 10% | < 10% | < 10% | 45% | < 10% | < 10% | < 10% | < 10% | 19% | < 10% | inhibition at 10 µM (SW-620): < 10%; inhibition at 10 µM (UACC-257): 15%; Sensitive cell lines no. [1]: 12; IC50 (A549 cell line): 12.5 ± 0.85 µM; IC50 (HCT-116 cell line): 10.4 ± 0.84 µM; IC50 (WI-38 cell line): 107 ± 7.03 µM; S. I. WI-38/A549 (WI-38 cell line): 8.6; melting point: 254 to 256 °C
Cc1nc(-c2ccc(Cl)cc2)ccc1NC(=O)Nc1ccc2c(c1)OCO2 [Compound 5g, 1-(Benzo[d][1,3]dioxol-5-yl)-3-(6-(4-chlorophenyl)-2-methylpyridin-3-yl)urea] | < 10% | < 10% | 24% | < 10% | < 10% | 21% | < 10% | 29% | < 10% | 18% | < 10% | < 10% | < 10% | 38% | < 10% | < 10% | < 10% | < 10% | 17% | < 10% | inhibition at 10 µM (SW-620): < 10%; inhibition at 10 µM (UACC-257): 25%; Sensitive cell lines no. [1]: 12; IC50 (A549 cell line): 6.72 ± 0.38 µM; IC50 (WI-38 cell line): 63.5 ± 5.08 µM; S. I. WI-38/A549 (WI-38 cell line): 9.4; melting point: 271 to 273 °C
Cc1nc(-c2cccs2)ccc1NC(=O)Nc1ccc(Cl)cc1 [Compound 5i, 1-(4-Chlorophenyl)-3-(2-methyl-6-(thiophen-2-yl)pyridin-3-yl)urea] | < 10% | < 10% | 20% | < 10% | < 10% | < 10% | < 10% | < 10% | 17% | 15% | < 10% | < 10% | < 10% | 28% | < 10% | < 10% | < 10% | < 10% | < 10% | < 10% | inhibition at 10 µM (SW-620): < 10%; inhibition at 10 µM (UACC-257): 23%; Sensitive cell lines no. [1]: 9; IC50 (A549 cell line): 8.73 ± 0.71 µM; IC50 (WI-38 cell line): 129 ± 12 µM; S. I. WI-38/A549 (WI-38 cell line): 14.8; melting point: 234 to 236 °C

Source: PMC6366416, “Synthesis and in vitro anticancer activity of certain novel 1-(2-methyl-6-arylpyridin-3-yl)-3-phenylureas as apoptosis-inducing agents” (Journal of Enzyme Inhibition and Medicinal Chemistry, 2019)
